Test system: yeast genes (level of expressed mRNA)
Test: DNA chip analysis of expressed mRNA of yeast genes after 2 h culture with a toxic chemical substance
Assay type: cell-based, Saccharomyces cerevisiae S288C
Method in brief: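 S. cerevisiae S288C grown at 25° C in YPD; toxicant added at log phase at growth-inhibitory, non-lethal levels for 2 h, untreated cells as control. Poly(A) mRNA reverse-transcribed with Cy3/Cy5-dUTP, hybridized to whole-genome chip at 65° C >12 h; value is fluorescence ratio versus untreated.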

Na2As [(1)]
0.5: The level of expressed mRNA in the presence of chemical substance/The level of expressed mRNA in the absence of chemical substance (yeast gene YDR432W)
2.3: The level of expressed mRNA in the presence of chemical substance/The level of expressed mRNA in the absence of chemical substance (yeast gene YBL078C)
1.3: The level of expressed mRNA in the presence of chemical substance/ (yeast gene YDL072C, ratio to control without chemical) | The level of expressed mRNA in the presence of chemical substance/The level of expressed mRNA in the absence of chemical substance (yeast gene YDR115W) | The level of expressed mRNA in the presence of chemical substance/ (yeast gene YDR511W, ratio to control without chemical substance, 2 h culture) | The level of expressed mRNA in the presence of chemical substance/ (yeast gene YER106W, ratio to control without chemical)
1.0: The level of expressed mRNA in the presence of chemical substance/The level of expressed mRNA in the absence of chemical substance (yeast gene YBL005W-A) | The level of expressed mRNA in the presence of chemical substance/in the absence of chemical substance (yeast gene YDL215C) | The level of expressed mRNA in the presence of chemical substance/The level of expressed mRNA in the absence of chemical substance (yeast gene YDR315C) | The level of expressed mRNA in the presence of chemical substance/The level of expressed mRNA in the absence of chemical substance (yeast gene YDR510W) | The level of expressed mRNA in the presence of chemical substance/ (yeast gene YEL001C, ratio to control without chemical) | The level of expressed mRNA in the presence of chemical substance/ (yeast gene YER004W, ratio to control without chemical substance, 2 h culture) | The level of expressed mRNA in the presence of chemical substance/The level of expressed mRNA in the absence of chemical substance (yeast gene YER039C)
1.7: The level of expressed mRNA in the presence of chemical substance/The level of expressed mRNA in the absence of chemical substance (yeast gene YCR004C) | The level of expressed mRNA in the presence of chemical substance/The level of expressed mRNA in the absence of chemical substance (yeast gene YDR055W)
1.5: The level of expressed mRNA in the presence of chemical substance/in the absence of chemical substance (yeast gene YDR297W)
0.8: The level of expressed mRNA in the presence of chemical substance/The level of expressed mRNA in the absence of chemical substance (yeast gene YAR010C) | The level of expressed mRNA in the presence of chemical substance/in the absence of chemical substance (yeast gene YBR036C) | The level of expressed mRNA in the presence of chemical substance/The level of expressed mRNA in the absence of chemical substance (yeast gene YDR104C) | The level of expressed mRNA in the presence of chemical substance/ (yeast gene YDR330W, ratio to control without chemical substance, 2 h culture) | The level of expressed mRNA in the presence of chemical substance/in the absence of chemical substance (yeast gene YDR387C) | The level of expressed mRNA in the presence of chemical substance/ (yeast gene YFL006W, ratio to control without chemical substance, 2 h culture)
1.1: The level of expressed mRNA in the presence of chemical substance/in the absence of chemical substance (yeast gene YBR298C) | The level of expressed mRNA in the presence of chemical substance/The level of expressed mRNA in the absence of chemical substance (yeast gene YCL020W) | The level of expressed mRNA in the presence of chemical substance/The level of expressed mRNA in the absence of chemical substance (yeast gene YCR071C) | The level of expressed mRNA in the presence of chemical substance/The level of expressed mRNA in the absence of chemical substance (yeast gene YDL008W) | The level of expressed mRNA in the presence of chemical substance/ (yeast gene YER079W, ratio to control without chemical substance, 2 h culture) | The level of expressed mRNA in the presence of chemical substance/ (yeast gene YER163C, ratio to control without chemical substance, 2 h culture)
0.7: The level of expressed mRNA in the presence of chemical substance/The level of expressed mRNA in the absence of chemical substance (yeast gene YCL027W) | The level of expressed mRNA in the presence of chemical substance/in the absence of chemical substance (yeast gene YDL078C) | The level of expressed mRNA in the presence of chemical substance/The level of expressed mRNA in the absence of chemical substance (yeast gene YDL238C) | The level of expressed mRNA in the presence of chemical substance/The level of expressed mRNA in the absence of chemical substance (yeast gene YDR358W) | The level of expressed mRNA in the presence of chemical substance/The level of expressed mRNA in the absence of chemical substance (yeast gene YDR388W) | The level of expressed mRNA in the presence of chemical substance/The level of expressed mRNA in the absence of chemical substance (yeast gene YDR481C)
0.6: The level of expressed mRNA in the presence of chemical substance/ (yeast gene YDR545W, ratio to control without chemical substance, 2 h culture) | The level of expressed mRNA in the presence of chemical substance/The level of expressed mRNA in the absence of chemical substance (yeast gene YEL042W)
2.0: The level of expressed mRNA in the presence of chemical substance/ (yeast gene YBL048W, ratio to control without chemical substance, 2 h culture) | The level of expressed mRNA in the presence of chemical substance/The level of expressed mRNA in the absence of chemical substance (yeast gene YEL066W)
1.2: The level of expressed mRNA in the presence of chemical substance/The level of expressed mRNA in the absence of chemical substance (yeast gene YBL041W) | The level of expressed mRNA in the presence of chemical substance/The level of expressed mRNA in the absence of chemical substance (yeast gene YBL043W) | The level of expressed mRNA in the presence of chemical substance/ (yeast gene YER158C, ratio to control without chemical substance, 2 h culture)
0.9: The level of expressed mRNA in the presence of chemical substance/ (yeast gene YAL053W, ratio to control without chemical) | The level of expressed mRNA in the presence of chemical substance/The level of expressed mRNA in the absence of chemical substance (yeast gene YBR214W) | The level of expressed mRNA in the presence of chemical substance/The level of expressed mRNA in the absence of chemical substance (yeast gene YCR088W) | The level of expressed mRNA in the presence of chemical substance/ (yeast gene YDL222C, ratio to control without chemical) | The level of expressed mRNA in the presence of chemical substance/The level of expressed mRNA in the absence of chemical substance (yeast gene YDR084C) | The level of expressed mRNA in the presence of chemical substance/ (yeast gene YDR411C, ratio to control without chemical substance, 2 h culture) | The level of expressed mRNA in the presence of chemical substance/The level of expressed mRNA in the absence of chemical substance (yeast gene YER107C) | The level of expressed mRNA in the presence of chemical substance/The level of expressed mRNA in the absence of chemical substance (yeast gene YER130C) | The level of expressed mRNA in the presence of chemical substance/ (yeast gene YER175C, ratio to control without chemical substance, 2 h culture)
1.4: The level of expressed mRNA in the presence of chemical substance/ (yeast gene YBL107C, ratio to control without chemical substance, 2 h culture) | The level of expressed mRNA in the presence of chemical substance/ (yeast gene YDL204W, ratio to control without chemical) | The level of expressed mRNA in the presence of chemical substance/The level of expressed mRNA in the absence of chemical substance (yeast gene YDR259C) | The level of expressed mRNA in the presence of chemical substance/ (yeast gene YER035W, ratio to control without chemical substance, 2 h culture)
1.9: The level of expressed mRNA in the presence of chemical substance/The level of expressed mRNA in the absence of chemical substance (yeast gene YDR085C)

Reference: patent US20050112573A1, “Method of detecting toxic substance” (priority 2001, published 2005)
